Experimental data: publication PMC8694143 (Microbiology Spectrum, 2021)

Tests used:
Assay in all cases: MIC determination in broth
Assay type in all cases: cell-based, Staphylococcus aureus
[1] = test system: MRSA ATCC BAA-2313; conditions: STIP3 variants, highest conc. tested 100 μg/mL; cation-adjusted MH broth, ~10^5 CFU/mL, 2-fold dilution series, 37°C, 16 h
Experimental: (§1) M. luteus ATCC 4698, S. aureus ATCC 29213, a panel of 7 MRSA (ATCC MP-2) strains, which includes ATCC BAA-41, BAA-42, BAA-44, BAA-1683, BAA-2094, BAA-2313, and 33592, and a series of additional bacterial isolates from human and veterinary cases were used in this study (Table S6). Bacterial strains were routinely grown in lysogeny broth (LB: 10 g/L tryptone, 5 g/L yeast extract, 10 g/L NaCl) at 30°C (M. luteus) or 37°C (Staphylococcus spp.) prior to use in specific experiments described below.
(§2) The MICs were measured for bioactive peptides identified from the initial screen. Cation-adjusted Mueller-Hinton (MH) broth was used as the growth medium for MIC determination experiments. Bacterial cultures were diluted to an OD of 5 × 10^−4 (∼10^5 CFU/mL) in 200 μL MH broth mixed with peptides in a 2-fold dilution series arrayed in 96-well plates. Plates were incubated without shaking at 30 or 37°C depending on the organism.

[2] = test system: MRSA ATCC BAA-42; conditions: STIP3 variants, highest conc. tested 100 μg/mL; cation-adjusted MH broth, ~10^5 CFU/mL, 2-fold dilution series, 37°C, 16 h
Experimental: as §1, §2

[3] = test system: MRSA ATCC BAA-41; conditions: STIP3 variants, highest conc. tested 100 μg/mL; cation-adjusted MH broth, ~10^5 CFU/mL, 2-fold dilution series, 37°C, 16 h
Experimental: as §1, §2

[4] = test system: S. aureus ATCC 29213; conditions: STIP3 variants, highest conc. tested 100 μg/mL; cation-adjusted MH broth, ~10^5 CFU/mL, 2-fold dilution series, 37°C, 16 h
Experimental: as §1, §2

[5] = test system: MRSA ATCC BAA-1683; conditions: STIP3 variants, highest conc. tested 100 μg/mL; cation-adjusted MH broth, ~10^5 CFU/mL, 2-fold dilution series, 37°C, 16 h
Experimental: as §1, §2

[6] = test system: MRSA ATCC BAA-2094; conditions: STIP3 variants, highest conc. tested 100 μg/mL; cation-adjusted MH broth, ~10^5 CFU/mL, 2-fold dilution series, 37°C, 16 h
Experimental: as §1, §2

[7] = test system: MRSA ATCC BAA-44; conditions: STIP3 variants, highest conc. tested 100 μg/mL; cation-adjusted MH broth, ~10^5 CFU/mL, 2-fold dilution series, 37°C, 16 h
Experimental: as §1, §2

[8] = test system: MRSA ATCC 33592; conditions: Table S5; STIP3 variants, highest conc. tested 100 μg/mL; cation-adjusted MH broth, ~10^5 CFU/mL, 2-fold dilution series, 37°C, 16 h
Experimental: as §1, §2

Row | Substance | MIC, S. aureus ATCC BAA 2313 (SCCmec XI) [1] | MIC, S. aureus ATCC BAA 42 (SCCmec VI) [2] | MIC, S. aureus ATCC BAA 41 (SCCmec II) [3] | MIC, S. aureus ATCC 29213 [4] | MIC, S. aureus ATCC BAA 1683 (SCCmec IV) [5] | MIC, S. aureus ATCC BAA 2094 (SCCmec V) [6] | MIC, S. aureus ATCC BAA 44 (SCCmec I) [7] | MIC, S. aureus ATCC 33592 (SCCmec III) [8]
1 | TVAGLVKWILATVKKFA [STIP3-15, rationally designed STIP3-1 variant] | 50 µg/mL | 50 µg/mL | 50 µg/mL | 25 µg/mL | 25 µg/mL | 25 µg/mL | 25 µg/mL | 12.5 µg/mL
2 | TVDGLVKWILATVKKFA [STIP3-17, rationally designed STIP3-1 variant] | > (The > symbol indicates that no inhibition was observed at 100 μg/mL for the STIP3 variants) | > (The > symbol indicates that no inhibition was observed at 100 μg/mL for the STIP3 variants) | > (The > symbol indicates that no inhibition was observed at 100 μg/mL for the STIP3 variants) | > (The > symbol indicates that no inhibition was observed at 100 μg/mL for the STIP3 variants) | > (The > symbol indicates that no inhibition was observed at 100 μg/mL for the STIP3 variants) | > (The > symbol indicates that no inhibition was observed at 100 μg/mL for the STIP3 variants) | > (The > symbol indicates that no inhibition was observed at 100 μg/mL for the STIP3 variants) | > (The > symbol indicates that no inhibition was observed at 100 μg/mL for the STIP3 variants)
3 | TVGGLVKWILAAVKKFA [STIP3-12, rationally designed STIP3-1 variant] | 25 µg/mL | 25 µg/mL | 25 µg/mL | 25 µg/mL | 25 µg/mL | 50 µg/mL | 25 µg/mL | 25 µg/mL
4 | TVGGLVKWILDTFKKFA [STIP3-11, rationally designed STIP3-1 variant] | 100 µg/mL | 50 µg/mL | 50 µg/mL | 50 µg/mL | 50 µg/mL | 100 µg/mL | 100 µg/mL | 50 µg/mL
5 | TVGGLVKWILDTVKKFA-NH2 [STIP3-27, C-terminally amidated STIP3-1] | 50 µg/mL | 25 µg/mL | 25 µg/mL | 50 µg/mL | 25 µg/mL | 25 µg/mL | 25 µg/mL | 50 µg/mL
6 | TVGGLVKWILDVVKKFA [STIP3-9, rationally designed STIP3-1 variant] | 25 µg/mL | 25 µg/mL | 35 µg/mL | 25 µg/mL | 25 µg/mL | 25 µg/mL | 25 µg/mL | 25 µg/mL
7 | TVGGLVKWILDWVKKFA [STIP3-10, rationally designed STIP3-1 variant] | 50 µg/mL | 25 µg/mL | 100 µg/mL | 100 µg/mL | > (The > symbol indicates that no inhibition was observed at 100 μg/mL for the STIP3 variants) | 100 µg/mL | 200 µg/mL | 100 µg/mL
8 | TVGGLVKWILKAVKKFA [STIP3-13, rationally designed STIP3-1 variant] | 25 µg/mL | 25 µg/mL | 12.5 µg/mL | 25 µg/mL | 25 µg/mL | 25 µg/mL | 25 µg/mL | 25 µg/mL
9 | TVGGLVKWILKTVKKFA [STIP3-3, rationally designed STIP3-1 variant] | 50 µg/mL | 50 µg/mL | 25 µg/mL | 25 µg/mL | 50 µg/mL | 25 µg/mL | 25 µg/mL | 25 µg/mL
10 | TVGGLVKWILNTVKKFA [STIP3-4, rationally designed STIP3-1 variant] | 100 µg/mL | 50 µg/mL | 50 µg/mL | 100 µg/mL | 100 µg/mL | 50 µg/mL | 50 µg/mL | 50 µg/mL
11 | TVGVLVKWILNVVAKFA [STIP3-24, rationally designed STIP3-1 variant] | > (The > symbol indicates that no inhibition was observed at 100 μg/mL for the STIP3 variants) | > (The > symbol indicates that no inhibition was observed at 100 μg/mL for the STIP3 variants) | > (The > symbol indicates that no inhibition was observed at 100 μg/mL for the STIP3 variants) | > (The > symbol indicates that no inhibition was observed at 100 μg/mL for the STIP3 variants) | > (The > symbol indicates that no inhibition was observed at 100 μg/mL for the STIP3 variants) | > (The > symbol indicates that no inhibition was observed at 100 μg/mL for the STIP3 variants) | > (The > symbol indicates that no inhibition was observed at 100 μg/mL for the STIP3 variants) | > (The > symbol indicates that no inhibition was observed at 100 μg/mL for the STIP3 variants)
12 | TVKALVKWILKTVAKFA [STIP3-19, rationally designed STIP3-1 variant] | 25 µg/mL | 50 µg/mL | 50 µg/mL | 50 µg/mL | 25 µg/mL | 25 µg/mL | 25 µg/mL | 25 µg/mL
13 | TVKALVKWILKTVAKFW [STIP3-21, rationally designed STIP3-1 variant] | 12.5 µg/mL | 25 µg/mL | 25 µg/mL | 25 µg/mL | 12.5 µg/mL | 12.5 µg/mL | 25 µg/mL | 25 µg/mL
14 | TVKALVKWILKTVAKFW-NH2 [STIP3-31, rationally designed STIP3-1 variant, C-terminal amide] | 25 µg/mL | 50 µg/mL | 25 µg/mL | 25 µg/mL | 25 µg/mL | 25 µg/mL | 25 µg/mL | 25 µg/mL
15 | TVKFLVKWILKWVAKFA [STIP3-25, rationally designed STIP3-1 variant] | > (The > symbol indicates that no inhibition was observed at 100 μg/mL for the STIP3 variants) | > (The > symbol indicates that no inhibition was observed at 100 μg/mL for the STIP3 variants) | > (The > symbol indicates that no inhibition was observed at 100 μg/mL for the STIP3 variants) | > (The > symbol indicates that no inhibition was observed at 100 μg/mL for the STIP3 variants) | > (The > symbol indicates that no inhibition was observed at 100 μg/mL for the STIP3 variants) | > (The > symbol indicates that no inhibition was observed at 100 μg/mL for the STIP3 variants) | > (The > symbol indicates that no inhibition was observed at 100 μg/mL for the STIP3 variants) | > (The > symbol indicates that no inhibition was observed at 100 μg/mL for the STIP3 variants)
